In ChEMBL document CHEMBL1157748, “4-hydroxy-1,2,5-oxadiazol-3-yl moiety as bioisoster of the carboxy function. Synthesis, ionization constants, and molecular pharmacological characterization at ionotropic glutamate receptors of compounds related to glutamate and its homologues” (J Med Chem, 2010):
The source made the active and inactive calls. The rule behind the calls is not given here.

Key:
[1] = Displacement of [3H]AMPA from AMPA receptor in Sprague-Dawley rat brain membranes; assay type: cell membranes, Membrane
Glutamate NMDA receptor [2] = test: Displacement of [3H]CGP39653 from NMDA receptor in Sprague-Dawley rat brain membranes; assay type: cell membranes, Membrane
Glutamate receptor 2 [3] = molecular target: Glutamate receptor 2 (Rattus norvegicus, UniProt P19491); test: Displacement of [3H]AMPA from rat iGluR2 receptor expressed in Sf9 cells baculovirus system after 1 to 2 hrs by liquid scintillation counting
[4] = molecular target: Glutamate receptor ionotropic, kainate 3 (Rattus norvegicus, UniProt P42264); test: Displacement of [3H]SYM2081 from rat iGluR7 receptor expressed in Sf9 cells baculovirus system after 1 to 2 hrs by liquid scintillation counting
Glutamate receptor 2 [5] = molecular target: Glutamate receptor 2 (Homo sapiens, UniProt P42262); test: Activity at recombinant iGluR2 receptor expressed in Xenopus laevis oocytes using holding potential of -15 to -20 mV by TEVC electrophysiology; assay type: cell-based, Oocyte
[6] = molecular target: Glutamate receptor ionotropic, kainate 1 (Rattus norvegicus, UniProt P22756); test: biochemical
Description: Displacement of [3H]SYM2081 from rat iGluR5 receptor expressed in Sf9 cells baculovirus system after 1 to 2 hrs by liquid scintillation counting

[7] = molecular target: T1, Glutamate NMDA receptor; Grin1/Grin2a (Rattus norvegicus, UniProt P35439+Q00959); test: Agonist activity at rat NR1/NR2A receptor expressed in BHK21 cells assessed as change in intracellular calcium levels by FLIPR assay; assay type: functional, cell-based, BHK-21
[8] = molecular target: Glutamate receptor ionotropic, kainate 2 (Rattus norvegicus, UniProt P42260); test: Displacement of [3H]SYM2081 from rat iGluR6 receptor expressed in Sf9 cells baculovirus system after 1 to 2 hrs by liquid scintillation counting
[9] = molecular target: T1, Glutamate NMDA receptor; Grin1/Grin2a; test: Agonist activity at rat NR1/NR2A receptor expressed in BHK21 cells assessed as change in intracellular calcium levels at 1000 uM by FLIPR assay; assay type: functional, cell-based; settings: bhk-21
[10] = molecular target: T1, Glutamate NMDA receptor; Grin1/Grin2a; test: Antagonist activity at rat NR1/NR2A receptor expressed in BHK21 cells assessed as inhibition of (S)-Glu-induced intracellular calcium levels by FLIPR assay; assay type: functional, cell-based, BHK-21
[11] = molecular target: T2, Glutamate NMDA receptor; Grin1/Grin2a (Rattus norvegicus) (UniProt P35439+Q00959); test: Agonist activity at rat NR1/NR2A receptor expressed in BHK21 cells assessed as change in intracellular calcium levels by FLIPR assay relative to (S)-Glu; assay type: functional, cell-based; settings: BHK-21
[12] = molecular target: T2, Glutamate NMDA receptor; Grin1/Grin2a (Rattus norvegicus); test: Agonist activity at rat NR1/NR2A receptor expressed in BHK21 cells assessed as increase in intracellular calcium levels by FLIPR assay; settings: BHK-21
Glutamate NMDA receptor [13] = test: Displacement of [3H]CPP from NMDA receptor in Sprague-Dawley rat brain membranes; assay type: cell membranes, Membrane

Chain of Glutamate receptor ionotropic, kainate 1 (P22756 whole entry): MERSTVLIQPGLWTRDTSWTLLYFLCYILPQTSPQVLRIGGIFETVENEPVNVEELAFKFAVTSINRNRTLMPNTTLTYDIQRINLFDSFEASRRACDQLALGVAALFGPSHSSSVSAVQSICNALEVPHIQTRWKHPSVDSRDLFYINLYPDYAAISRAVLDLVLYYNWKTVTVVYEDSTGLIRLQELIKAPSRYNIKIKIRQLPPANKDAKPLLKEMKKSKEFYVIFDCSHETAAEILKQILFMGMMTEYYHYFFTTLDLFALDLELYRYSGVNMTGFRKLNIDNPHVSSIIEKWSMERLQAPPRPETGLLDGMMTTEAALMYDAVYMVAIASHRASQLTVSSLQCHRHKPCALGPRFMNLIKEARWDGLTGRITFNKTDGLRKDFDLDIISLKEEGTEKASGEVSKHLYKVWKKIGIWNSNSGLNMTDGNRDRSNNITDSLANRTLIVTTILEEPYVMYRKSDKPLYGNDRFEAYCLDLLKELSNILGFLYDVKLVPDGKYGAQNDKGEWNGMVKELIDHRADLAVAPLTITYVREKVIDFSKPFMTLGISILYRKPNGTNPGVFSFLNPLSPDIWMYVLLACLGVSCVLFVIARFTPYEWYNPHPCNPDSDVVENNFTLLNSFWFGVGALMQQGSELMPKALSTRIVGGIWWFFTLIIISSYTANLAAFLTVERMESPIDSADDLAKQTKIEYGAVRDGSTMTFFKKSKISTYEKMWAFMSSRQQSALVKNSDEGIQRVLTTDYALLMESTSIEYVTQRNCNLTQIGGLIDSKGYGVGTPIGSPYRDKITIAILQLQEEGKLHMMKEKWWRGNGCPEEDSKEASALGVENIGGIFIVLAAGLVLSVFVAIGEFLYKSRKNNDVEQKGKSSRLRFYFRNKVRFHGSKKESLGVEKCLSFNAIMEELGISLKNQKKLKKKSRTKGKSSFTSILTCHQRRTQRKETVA
Chain of Glutamate receptor 2 (Rattus norvegicus, UniProt P19491) (P19491 whole entry): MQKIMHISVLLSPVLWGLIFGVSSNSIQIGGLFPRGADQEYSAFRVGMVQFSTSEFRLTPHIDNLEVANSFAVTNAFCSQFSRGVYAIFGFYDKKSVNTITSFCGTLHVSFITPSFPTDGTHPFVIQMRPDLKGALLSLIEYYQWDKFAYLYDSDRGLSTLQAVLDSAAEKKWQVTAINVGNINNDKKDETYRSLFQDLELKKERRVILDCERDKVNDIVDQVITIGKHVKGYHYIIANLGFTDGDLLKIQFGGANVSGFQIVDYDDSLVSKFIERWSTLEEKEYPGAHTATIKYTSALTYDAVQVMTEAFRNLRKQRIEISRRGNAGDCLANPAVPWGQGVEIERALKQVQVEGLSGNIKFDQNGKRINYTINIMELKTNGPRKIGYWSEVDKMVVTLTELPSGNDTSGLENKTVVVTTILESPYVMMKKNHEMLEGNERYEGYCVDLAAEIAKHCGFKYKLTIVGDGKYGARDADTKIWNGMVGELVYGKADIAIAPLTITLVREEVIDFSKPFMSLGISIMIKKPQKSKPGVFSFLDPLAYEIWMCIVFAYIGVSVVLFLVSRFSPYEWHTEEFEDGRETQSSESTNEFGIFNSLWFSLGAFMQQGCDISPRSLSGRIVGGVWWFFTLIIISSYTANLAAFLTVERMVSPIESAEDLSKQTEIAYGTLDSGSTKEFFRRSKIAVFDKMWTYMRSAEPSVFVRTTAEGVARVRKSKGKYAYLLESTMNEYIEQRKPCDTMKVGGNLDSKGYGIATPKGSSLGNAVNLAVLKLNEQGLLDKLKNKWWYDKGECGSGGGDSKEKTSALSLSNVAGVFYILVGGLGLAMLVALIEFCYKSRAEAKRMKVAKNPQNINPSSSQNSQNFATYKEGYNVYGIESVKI
Chain of Glutamate receptor ionotropic, kainate 3 (P42264 whole entry): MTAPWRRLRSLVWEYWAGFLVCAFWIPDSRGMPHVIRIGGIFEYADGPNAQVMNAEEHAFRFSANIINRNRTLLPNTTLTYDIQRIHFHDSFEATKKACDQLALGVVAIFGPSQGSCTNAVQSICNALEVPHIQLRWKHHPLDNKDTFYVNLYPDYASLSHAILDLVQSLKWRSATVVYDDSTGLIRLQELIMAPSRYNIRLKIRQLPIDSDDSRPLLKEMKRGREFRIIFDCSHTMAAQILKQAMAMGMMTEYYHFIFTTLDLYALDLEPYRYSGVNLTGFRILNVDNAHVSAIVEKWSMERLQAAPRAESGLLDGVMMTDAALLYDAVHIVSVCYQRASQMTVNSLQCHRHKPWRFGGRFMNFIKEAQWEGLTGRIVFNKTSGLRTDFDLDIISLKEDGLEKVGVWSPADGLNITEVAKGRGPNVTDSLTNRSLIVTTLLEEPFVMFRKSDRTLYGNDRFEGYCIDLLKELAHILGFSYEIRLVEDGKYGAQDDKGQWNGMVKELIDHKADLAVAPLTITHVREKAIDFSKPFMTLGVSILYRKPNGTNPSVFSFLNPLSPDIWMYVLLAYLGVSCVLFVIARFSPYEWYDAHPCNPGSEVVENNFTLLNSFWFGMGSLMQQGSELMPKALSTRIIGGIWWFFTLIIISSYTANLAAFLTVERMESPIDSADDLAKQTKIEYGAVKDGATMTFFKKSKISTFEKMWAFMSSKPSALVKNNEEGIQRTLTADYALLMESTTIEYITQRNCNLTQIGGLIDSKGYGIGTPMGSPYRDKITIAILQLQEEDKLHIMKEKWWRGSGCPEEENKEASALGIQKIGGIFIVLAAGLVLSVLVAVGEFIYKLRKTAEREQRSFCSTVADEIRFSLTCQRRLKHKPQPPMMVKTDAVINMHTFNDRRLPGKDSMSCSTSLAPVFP
Chain of Glutamate receptor ionotropic, kainate 2 (P42260 whole entry): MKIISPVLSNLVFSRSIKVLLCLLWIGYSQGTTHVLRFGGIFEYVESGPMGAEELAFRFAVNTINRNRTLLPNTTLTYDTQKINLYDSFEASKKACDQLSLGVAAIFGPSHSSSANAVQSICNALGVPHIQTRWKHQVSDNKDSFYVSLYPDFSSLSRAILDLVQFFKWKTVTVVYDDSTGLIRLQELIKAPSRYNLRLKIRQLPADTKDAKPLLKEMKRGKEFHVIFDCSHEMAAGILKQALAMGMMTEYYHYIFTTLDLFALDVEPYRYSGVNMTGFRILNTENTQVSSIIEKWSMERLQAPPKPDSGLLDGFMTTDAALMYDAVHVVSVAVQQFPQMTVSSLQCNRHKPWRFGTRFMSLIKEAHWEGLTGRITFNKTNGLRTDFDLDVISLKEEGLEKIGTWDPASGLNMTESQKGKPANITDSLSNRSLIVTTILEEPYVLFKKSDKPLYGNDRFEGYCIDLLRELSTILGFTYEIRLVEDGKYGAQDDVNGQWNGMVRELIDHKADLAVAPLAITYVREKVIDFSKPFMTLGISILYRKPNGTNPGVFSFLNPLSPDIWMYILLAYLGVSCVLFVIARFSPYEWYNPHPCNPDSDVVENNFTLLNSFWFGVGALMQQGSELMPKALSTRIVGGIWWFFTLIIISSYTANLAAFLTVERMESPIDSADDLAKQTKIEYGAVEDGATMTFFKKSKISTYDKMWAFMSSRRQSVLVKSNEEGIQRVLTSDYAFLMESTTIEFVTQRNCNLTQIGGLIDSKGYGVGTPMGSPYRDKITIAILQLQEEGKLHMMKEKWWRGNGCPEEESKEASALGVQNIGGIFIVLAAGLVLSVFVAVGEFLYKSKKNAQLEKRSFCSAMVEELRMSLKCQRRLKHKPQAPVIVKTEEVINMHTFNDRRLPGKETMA
Chain of Glutamate receptor 2 (Homo sapiens, UniProt P42262) (P42262 whole entry): as the sequence (P19491 whole entry) above, with T191M, A291T, G764R, P852A counted along it

Row | SMILES | IC50 [1] | Ki (Glutamate NMDA receptor [2]) | pIC50 [1] | further results
1 | C=C(C)[C@H]1CN[C@H](C(=O)O)[C@H]1CC(=O)O [KAINIC ACID] | 4 µM | > 100 µM | – | –
2 | NC(Cc1nonc1O)C(=O)O (racemic) [2-AMINO-3-(4-HYDROXY-1,2,5-OXADIAZOL-3-YL)PROPIONIC ACID (STRUCTURAL MIX)] | 0.17 µM | 16 µM | 6.76 | –
3 | NC(Cc1nonc1O)C(=O)O (stereo in doubt; (-)-10) [2-AMINO-3-(4-HYDROXY-1,2,5-OXADIAZOL-3-YL)PROPIONIC ACID (STRUCTURAL MIX)] | 0.76 µM | > 100 µM | – | Ki (Glutamate receptor 2 [3]): 0.25 µM; Ki ([4]; sf9): > 100 µM; EC50 (Glutamate receptor 2 [5]): 43 µM; Ki [6]: 77 µM; EC50 [7]: > 500 µM; Ki ([8]; sf9): > 100 µM
4 | Cc1onc(O)c1CC(N)C(=O)O (racemic) [(R,S)-AMPA] | 0.039 µM | – | – | –
5 | NC(CCc1nonc1O)C(=O)O (stereo in doubt; (+)-15) [2-AMINO-4-(4-HYDROXY-1,2,5-OXADIAZOL-3-YL)BUTANOIC ACID (STRUCTURAL MIX)] | 42 µM | 73 µM | 4.37 | Ki (Glutamate receptor 2 [3]): 40 µM; Ki [4]: 41 µM; EC50 (Glutamate receptor 2 [5]): 489 µM; Ki [6]: 53 µM; EC50 [9]: Not Active; IC50 [10]: 1020 µM; Ki [8]: > 1000 µM
6 | NC(CCc1nonc1O)C(=O)O (racemic) [2-AMINO-4-(4-HYDROXY-1,2,5-OXADIAZOL-3-YL)BUTANOIC ACID (STRUCTURAL MIX)] | 77 µM | 4.9 µM | 4.12 | –
7 | NC(CCCc1nonc1O)C(=O)O (stereo in doubt; (+)-18) [2-AMINO-5-(4-HYDROXY-1,2,5-OXADIAZOL-3-YL)PENTANOIC ACID (STRUCTURAL MIX)] | 42 µM | 22 µM | 4.37 | Ki (Glutamate receptor 2 [3]): 20 µM; Ki [4]: > 1000 µM; EC50 (Glutamate receptor 2 [5]): 491 µM; Ki [6]: 67 µM; EC50 [9]: Not Active; IC50 [10]: 245 µM; Ki [8]: > 1000 µM
8 | NC(CCCc1nonc1O)C(=O)O (racemic) [2-AMINO-5-(4-HYDROXY-1,2,5-OXADIAZOL-3-YL)PENTANOIC ACID (STRUCTURAL MIX)] | 61 µM | 2.9 µM | 4.22 | –
9 | NC(Cc1nonc1O)C(=O)O (single isomer, unassigned; (+)) | – | – | – | Imax [11]: 0.76
10 | CN[C@H](CC(=O)O)C(=O)O [N-METHYL-D-ASPARTIC ACID (NMDA)] | > 100 µM | 6.2 µM | – | –
11 | NC(CCc1nonc1O)C(=O)O (single isomer, unassigned; (-)) [2-AMINO-4-(4-HYDROXY-1,2,5-OXADIAZOL-3-YL)BUTANOIC ACID (STRUCTURAL MIX)] | > 100 µM | 3.4 µM | – | IC50 [10]: 49 µM
12 | NC(C(=O)O)c1nonc1O (racemic) | > 100 µM | 6.3 µM | – | –
13 | NC(CCCc1nonc1O)C(=O)O (racemic) | – | – | – | Activity [12]: inactive
14 | NC(Cc1nsnc1O)C(=O)O (racemic) | 0.12 µM | – | – | Ki (Glutamate NMDA receptor [13]): > 100 µM
15 | NC(CCc1nonc1O)C(=O)O (racemic) | – | – | – | Activity [12]: inactive
16 | NC(Cc1nonc1O)C(=O)O (single isomer, unassigned; (+)) [2-AMINO-3-(4-HYDROXY-1,2,5-OXADIAZOL-3-YL)PROPIONIC ACID (STRUCTURAL MIX)] | 0.11 µM | 13 µM | 6.95 | Ki (Glutamate receptor 2 [3]): 0.043 µM; Ki [4]: > 100 µM; EC50 (Glutamate receptor 2 [5]): 9.4 µM; Ki [6]: 8.1 µM; EC50 [7]: 47 µM; Ki [8]: > 100 µM
17 | NC(CCCc1nonc1O)C(=O)O (stereo in doubt; (-)-18) [2-AMINO-5-(4-HYDROXY-1,2,5-OXADIAZOL-3-YL)PENTANOIC ACID (STRUCTURAL MIX)] | > 100 µM | 1.8 µM | – | IC50 [10]: 28 µM
